Data as given in patent publication US20260028344A1, “CRYSTALLINE FORMS OF LANRAPLENIB AND METHODS OF MAKING AND USING THE SAME” (Kronos Bio, Inc., priority 2022, published 2026).

Experiment: Solubility / biopharmaceutical classification (BCS) of lanraplenib
Type: physicochemical
Conditions: in physiological conditions

solubility: low
SMILES: Nc1cncc(-c2cn3ccnc3c(Nc3ccc(N4CCN(C5COC5)CC4)cc3)n2)n1 [Lanraplenib]
